Source: PubChem BioAssay (NCI)
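Method: 48-hour compound exposure of cells in 96-well plates, five concentrations, linear interpolation of endpoints. TGI denotes the concentration required for complete inhibition of growth.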

Legend:
Experiment in all cases: NCI anticancer screen, dose series, 48 h
[1] = tested on: SNB-75 CNS
[2] = tested on: UACC-257 melanoma
[3] = tested on: SK-MEL-5 melanoma
[4] = tested on: SK-OV-3 ovarian
[5] = tested on: SF-268 CNS
[6] = tested on: PC-3 prostate
[7] = tested on: LOX IMVI melanoma
[8] = tested on: OVCAR-3 ovarian
[9] = tested on: 786-0 renal
[10] = tested on: TK-10 renal

Row | Structure (SMILES) | TGI [1] [µM] | TGI [2] [µM] | TGI [3] [µM] | TGI [4] [µM] | TGI [5] [µM] | TGI [6] [µM] | TGI [7] [µM] | TGI [8] [µM] | TGI [9] [µM] | TGI [10] [µM]
1 | O=C1/C(=C/c2ccccc2O)N=C(c2ccccc2)N1c1nc2ccccc2s1 | 98.2 | 79.2 | 23.3 | > 100 | 77.7 | 43.8 | > 100 | 54.3 | 53.8 | 74.9
2 | Brc1ccc2c([C@H]3CN[C@@H](c4c[nH]c5cc(Br)ccc45)CN3)c[nH]c2c1 | 17.8 | 28.1 | 15.6 | 22.7 | 20.4 | 15.2 | 3.36 | 3.94 | 3.18 | 18.5
3 | CCOC(=O)NC(NC1=NCCS1)(C(=O)OCC)C(F)(F)F (stereo not given) | > 100 | > 100 | > 100 | > 100 | > 100 | > 100 | > 100 | > 100 | > 100 | > 100
4 | CCOC(=O)C(Cl)(NC(=O)c1c(F)c(F)c(F)c(F)c1F)C(F)(F)F (stereo not given) | > 100 | > 100 | > 100 | > 100 | > 100 | > 100 | > 100 | > 100 | > 100 | > 100
5 | COc1ccc2oc(OC)c(CC=C(C)C)c(=O)c2c1C | > 100 | > 100 | > 100 | > 100 | > 100 | > 100 | > 100 | > 100 | > 100 | > 100
6 | CC(C)C1=CCC2C(=C1)CCC1C(C)(C(=O)O)CCCC21C (stereo not given) (tested in a mixture with another compound) | > 100 | > 100 | > 100 | > 100 | > 100 | > 100 | > 100 | > 100 | > 100 | > 100
7 | NCCCNC1(c2cc3ccccc3s2)CCCCC1 | 24.2 | 3.23 | 3.31 | 28.6 | 24.7 | 21 | 6.86 | 22.6 | 5.27 | 12
8 | Cc1cc(C)c2c(n1)S(=O)(=O)N(CCCN1CCN(c3cccc(C(F)(F)F)c3)CC1)c1c-2nn(C)c1C | > 100 | > 100 | > 100 | > 100 | > 100 | > 100 | > 100 | > 100 | > 100 | > 100
9 | O=c1[nH]c(Nc2cc(Cl)cc(Cl)c2)nc2nc[nH]c12 | > 75 | > 75 | > 75 | > 75 | > 75 | > 75 | > 75 | > 75 | > 75 | > 75
10 | Cc1cc(C)nc(SC(C)C(=O)N/N=C/c2ccc(OCc3ccccc3)cc2)n1 (stereo not given) | > 100 | 37.9 | 20.5 | > 100 | > 100 | 58.7 | > 100 | > 100 | > 100 | > 100
11 | O=C1CCCC/C1=C\c1ccc(Br)cc1 | 29.8 | 70.3 | 44.5 | 44.5 | 36.3 | > 100 | > 100 | 44.3 | 30.9 | 30.9
12 | CN(C)c1ccccc1CN1CCCN(Cc2ccccc2N(C)C)C1c1ccncc1 | 32.1 | 7.98 | 18.3 | 32.9 | 37.9 | > 100 | 28.4 | 28 | 32.2 | 28.4
13 | CC(C)[Si](OC1=CCC[C@H]2NC(=O)[C@@H](Cc3ccccc3)[C@@]12C)(C(C)C)C(C)C | 31.2 | 16.3 | 9.58 | 18.9 | 29.1 | 12.3 | 11.2 | 19.7 | 14.9 | 21.7
14 | Cc1cccnc1/N=C/c1c(O)n(C)c(=O)[nH]c1=O | > 100 | > 100 | > 100 | > 100 | > 100 | > 100 | > 100 | > 100 | > 100 | > 100
15 | CSCCCNC(=O)c1csc(-c2csc(C(CNC(=O)OC(C)(C)C)CNC(=O)OC(C)(C)C)n2)n1 | > 100 | > 100 | > 100 | > 100 | > 100 | > 100 | > 100 | > 100 | > 100 | > 100
16 | COc1ccc(C(SCCO)(c2ccccc2)c2ccccc2)cc1 | 25.7 | 32.7 | 21.7 | 34.8 | 31.7 | 25.4 | 39.7 | 31.8 | 27 | 35

Row | Structure (SMILES) | TGI [1] [µM] | TGI [2] [µM] | TGI [3] [µM] | TGI [4] [µM] | TGI [5] [µM] | TGI [6] [µM] | TGI [7] [µM] | TGI [8] [µM] | TGI [9] [µM] | TGI [10] [µM]
17 | C/C(=C/C(=O)Nn1c(Cc2ccccc2)n[nH]c1=O)C(=O)O | > 100 | > 100 | > 100 | > 100 | > 100 | > 100 | > 100 | > 100 | > 100 | > 100
18 | O=S(=O)(O)ON=C1c2ccccc2-c2ccccc21 | > 100 | > 100 | > 100 | > 100 | > 100 | > 100 | > 100 | > 100 | > 100 | > 100
19 | O=C(/C=C/c1ccc(O)c(O)c1)c1cc(O)cc(O)c1 | 34.5 | 23 | > 100 | 42.9 | 42.8 | 28.5 | 18.9 | 26.4 | 26.6 | 39.7
20 | Nc1[nH]c(=S)nc2snnc12 | > 100 | > 100 | > 100 | > 100 | > 100 | > 100 | > 100 | > 100 | > 100 | > 100
21 | COc1ccc2sc(-n3nc4ccccc4c3Nc3nc4ccc(OC)cc4s3)nc2c1 | 9.92 | 19.5 | 9.97 | 7.47 | 32.5 | 17.4 | 24.3 | 7.45 | 3.87 | 11.8
22 | CCOC(=O)c1c(N2CCCC2)[nH]c(=O)c(C(c2ccco2)c2c(O)c(C(=O)OCC)c(N3CCCC3)[nH]c2=O)c1O | 60.5 | > 100 | > 100 | > 100 | > 100 | > 100 | > 100 | > 100 | > 100 | > 100
23 | CC1C2CC(C(S(=O)(=O)N3CCOCC3)/C2=N\O)C1(C)C (stereo not given) | > 100 | > 100 | > 100 | > 100 | > 100 | > 100 | > 100 | > 100 | > 100 | > 100
24 | Cc1cc(NC[C@H](O)[C@H](O)[C@H](O)CO)c(Sc2cc(=O)[nH]c(=O)[nH]2)cc1C | > 62.5 | > 62.5 | > 62.5 | > 62.5 | > 62.5 | > 62.5 | > 62.5 | > 62.5 | > 62.5 | > 62.5
25 | N#C/C(=C\NC(=S)c1ccncc1)c1nc2ccccc2s1 | > 100 | > 100 | > 100 | > 100 | > 100 | > 100 | > 100 | > 100 | > 100 | > 100
26 | c1ccc2c(c1)ncn2C1CCCCO1 (stereo not given) | > 100 | > 100 | > 100 | > 100 | > 100 | > 100 | > 100 | > 100 | > 100 | > 100
27 | CC(=O)N(O)[C@@H]1CC[C@H](n2cnc3c(N)ncnc32)C1 | > 100 | > 100 | > 100 | > 100 | > 100 | > 100 | > 100 | > 100 | > 100 | > 100
28 | Cn1/c(=N\S(=O)(=O)c2ccccc2)n(S(=O)(=O)c2ccccc2)c2ccccc21 | > 100 | > 100 | > 100 | > 100 | > 100 | > 100 | > 100 | > 100 | > 100 | > 100
29 | Cc1cc(Cc2c(F)c(F)c(C(c3cc(C)no3)c3c(F)c(F)c(F)c(F)c3F)c(F)c2F)on1 (stereo not given) | > 100 | > 100 | > 100 | > 100 | > 100 | > 100 | > 100 | > 100 | > 100 | > 100
30 | CCOc1ccc(/C=N/[N+](C)(C)C)cc1OCC | > 10 | > 10 | > 10 | > 10 | > 10 | > 10 | > 10 | > 10 | > 10 | > 10
31 | Nc1nc(Cl)cc(NCCC2(CO)CCC2)n1 | > 100 | > 100 | > 100 | > 100 | > 100 | > 100 | > 100 | > 100 | > 100 | > 100
32 | Cc1noc2nnn(-c3ccc(Cl)cc3)c(=O)c12 | 7.47 | 20.9 | 13 | 26.5 | 22.1 | 19.2 | 11.4 | 6.83 | 8.33 | 21.8
